The text below walks through data of US11713309B2, “Solid forms of Cerdulatinib” (Alexion Pharmaceuticals, Inc., priority 2018, dated 2023).

In general, solubility refers to the dissolved amount per volume that the medium holds. Higher therefore signals much dissolved substance.

Structures are written as SMILES. Where a name gives a salt, the structure may show the parent alone.

Common to all, as to assay type: physicochemical
Data set [1] is described as follows: Gravimetric vapor sorption (GVS) hygroscopicity. The note with it: above about 40% RH, most markedly above about 80% RH. As to the method:
Sorption isotherms were obtained using a Hiden Isochema moisture sorption analyser (model IGAsorp), controlled by IGAsorp Systems Software v6.50.48. The sample was maintained at a constant temperature (25° C.) by the instrument controls. The humidity was controlled by mixing streams of dry and wet nitrogen, with a total flow of 250 mL·min^−1. The instrument was verified for relative humidity content by measuring three calibrated Rotronic salt solutions (10-50-88%). The weight change of the sample was monitored as a function of humidity by a microbalance (accuracy+/−0.005 mg). A defined amount of sample was placed in a tared mesh stainless steel basket under ambient conditions. A full experimental cycle consisted of two scans (sorption and desorption) at a constant temperature (25° C.) and 10% RH intervals over a 10-90% range (90 minutes for each humidity level).
The hygroscopicity of the esylate, mesylate, HCl, and sulfate salts/co-crystals of Compound I formed via the first scale up process was analyzed. All hygroscopicity experiments covered a wide range of humidity (0 to about 90% relative humidity) and were performed at about 25° C. to assess behavior.

Data set [2] can be described thus: Moisture uptake study of Compound I HCl amorphous at ambient conditions.
Data set [3] can be described thus: Thermodynamic pH-solubility profile. The note with it: 7 days of shaking, about 37° C. water bath. The source says: A thermodynamic pH-solubility profile of Compound I HCl Form I in various buffer or non-buffer solutions is further provided in FIG. 61. FIG. 61 additionally includes the thermodynamic pH-solubility profile of Compound I free base. It is of note that no data is shown in the profile of Compound I free base below a pH of about 2.0, as Compound I free base converted to Compound I HCl Form I below a pH of about 2.0. Similarly, no data is shown in the profile of Compound I HCl Form I above a pH of about 3.0, as Compound I HCl Form I converted to Compound I free base above a pH of about 3.0.

A short description of data set [4]: Thermodynamic aqueous solubility by HPLC. The note with it: HPLC grade water, 25° C., 24 hours, second scale up material. The method, then: The suspension was equilibrated at 25° C. for 24 hours. The suspension was then passed through a filter into an HPLC vial. The filtrate was then diluted by an appropriate factor. Quantification was executed by HPLC with reference to a standard solution of approximately 1 mg·mL^−1 in acetonitrile:water (1:1). Different volumes of the standard, diluted and undiluted sample solutions were injected. […] HPLC method parameters are described in Table 1 and Table 2.
Analysis was performed on an Agilent 1100 series liquid chromatography, equipped with a UV detector (DAD or VWD) @ 254 nm and using Chemstation Rev.B.01.03 software for data processing.
(§1) The solubility of the salts/co-crystals of Compound I prepared from the second scale up process was analyzed. The materials recovered after the solubility analysis were evaluated by XRPD to observe any form changes.

Data set [5] is described as follows: XRPD form evaluation of materials recovered after solubility analysis. The note with it: aqueous solubility analysis, second scale up material. As to the method:
as §1

Data set [6] in a line: Slurry maturations in various solvents (form reproducibility/stability). The note with it: cycling about 25 to about 50° C., about 4 days. The method, then:
A series of slurry maturations in various solvents was performed to further analyze the form reproducibility/stability of the esylate, mesylate, HCl, and sulfate salts/co-crystals of Compound I. The solvents chosen were acetonitrile, EtOAc, ethanol, and IPA. The input materials were the salts/co-crystals of Compound I formed via the second scale up process. About 20 mg of each sample was charged to reflux tubes and heated with temperature cycling between about 25 and about 50° C. for about 4 days. The resulting materials were isolated by filtration and dried in vacuo at about 40° C. The results of the slurry maturations for the resulting HCl and mesylate salts/co-crystals are presented in subsections (a)-(d) below. The data for the resulting esylate and sulfate salts/co-crystals of Compound have been omitted due to notable form variation.

Data set [7] is described as follows: Slurry competition of free base forms. The note with it: from 5° C. to 50° C. As to the method:
Slurry competition was performed to evaluate the stability of Compound I free base Form II and Type E. A mixture of Compound I free base Form II and Type E were added into 1.0 mL of saturated EtOH or MEK solution (slurry of Form I at 5° C./RT/50° C. overnight). The suspensions were stirred at target temperatures.
Slurry competition was performed to evaluate the stability of free base Form I and Form II. A mixture of free base Form I and Form II were added into 1.0 mL of saturated EtOH or MEK solution (slurry of Form I at 5° C./RT/50° C. overnight). The suspensions were stirred at target temperatures for 3 days.

Take `CCS(=O)(=O)N1CCN(c2ccc(Nc3ncc(C(N)=O)c(NC4CC4)n3)cc2)CC1` [Compound I HCl amorphous, 4-(cyclopropylamino)-2-(4-(4-(ethylsulfonyl)piperazin-1-yl)phenylamino)pyrimidine-5-carboxamide]: the GVS mass change result in data set [1] is on record as “large increase in mass”. Further, the “Crystallinity on exposure to ambient conditions” value in data set [2] is reported as “gradual increase in crystallinity”.

On to `CCS(=O)(=O)N1CCN(c2ccc(Nc3ncc(C(N)=O)c(NC4CC4)n3)cc2)CC1` [Compound I, 4-(cyclopropylamino)-2-((4-(4-(ethylsulfonyl)piperazin-1-yl)phenyl)amino)pyrimidine-5-carboxamide], for which, in data set [3], the “pH range in which Compound I free base converted to Compound I HCl Form I” value is given as less than 2.0.

Turning to `CCS(=O)(=O)N1CCN(c2ccc(Nc3ncc(C(N)=O)c(NC4CC4)n3)cc2)CC1` [Compound I HCl Form II, 4-(cyclopropylamino)-2-(4-(4-(ethylsulfonyl)piperazin-1-yl)phenylamino)pyrimidine-5-carboxamide], the solubility in data set [4] (listed as Comp. I HCl (formed using dry HCl) Form II) was determined as 120 µg/mL. Also, the “Form change on solubility analysis (XRPD post vs pre)” value in data set [5] is given as “form change to Compound I HCl Form I”. The “Form after slurry maturation (XRPD)” value in data set [6] (IMA) was “conversion to Compound I Form I”; in data set [6] (IPA), “conversion to Compound I Form I, yet retains some mixed features”; in data set [6] (acetonitrile and EtOAc) it was “mixture of Compound I Form I, Compound I Form II, and possibly other forms”.

For the compound `CCS(=O)(=O)N1CCN(c2ccc(Nc3ncc(C(N)=O)c(NC4CC4)n3)cc2)CC1` [Compound I Form II, 4-(cyclopropylamino)-2-(4-(4-(ethylsulfonyl)piperazin-1-yl)phenylamino)pyrimidine-5-carboxamide], in data set [7], the “Relative thermodynamic stability (slurry competition with Form I)” value is reported as “more thermodynamically stable” and the “Relative thermodynamic stability (slurry competition with Type E)” value is “more thermodynamically stable than Type E”.

For `CCS(=O)(=O)N1CCN(c2ccc(Nc3ncc(C(N)=O)c(NC4CC4)n3)cc2)CC1` [Compound I mesylate Form III, 4-(cyclopropylamino)-2-(4-(4-(ethylsulfonyl)piperazin-1-yl)phenylamino)pyrimidine-5-carboxamide], in data set [4] (listed as Comp. I Mesylate Similar to Form III), the solubility was 2320 µg/mL. For the same compound, the “Form change on solubility analysis (XRPD post vs pre)” value in data set [5] is listed as “same form, which is different than the forms of either input material”. The “Form after slurry maturation (XRPD)” value in data set [6] (acetonitrile, EtOAc, ethanol, IPA, listed as Compound I mesylate (mono-mesylate) Form III) is “mixture of forms comprising Compound I mesylate Form III and other forms”.
